Assays:
human OX1 receptor = molecular target: T1, human OX1 receptor (Homo sapiens, UniProt O43613); assay: Measurement of orexin receptor antagonistic activity (calcium fluorescence, FLIPRtetra); assay type: cell-based; conditions: CHO, 10 μM test compound; CHO cells expressing human OX1 receptor; OX-A 1 nM; read-out: Human Orexin1 receptor inhibition (at 10 μM)
T1 construct: expressed in transfected cells; host or cells: CHO cells
T1 sequence (O43613 1-425): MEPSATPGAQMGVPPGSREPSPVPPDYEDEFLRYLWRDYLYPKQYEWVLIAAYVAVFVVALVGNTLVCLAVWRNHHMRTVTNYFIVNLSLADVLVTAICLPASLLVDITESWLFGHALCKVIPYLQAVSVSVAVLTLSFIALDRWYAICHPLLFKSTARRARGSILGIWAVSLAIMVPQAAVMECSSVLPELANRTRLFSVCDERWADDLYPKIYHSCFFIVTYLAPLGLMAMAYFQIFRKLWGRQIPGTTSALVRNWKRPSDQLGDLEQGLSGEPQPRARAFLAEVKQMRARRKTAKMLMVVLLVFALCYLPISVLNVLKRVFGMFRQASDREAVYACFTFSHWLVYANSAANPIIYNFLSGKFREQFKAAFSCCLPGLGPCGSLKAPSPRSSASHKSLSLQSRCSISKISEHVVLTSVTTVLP
In short: (§1)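 Calcium fluorescence measured by FLIPRtetra every second for 2 min after orexin-A challenge, 1 nM final for OX1 and 0.3 nM final for OX2. Receptor-expressing CHO cells received compound in HEPES-buffered HBSS with 0.1% BSA just before agonist.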

human OX2 receptor = molecular target: T2, human OX2 receptor (Homo sapiens, UniProt O43614); assay: as above; assay type: cell-based; conditions: CHO, 10 μM test compound; CHO cells expressing human OX2 receptor; OX-A 0.3 nM; read-out: Human Orexin2 receptor inhibition (at 10 μM)
T2 construct: expressed in transfected cells; host or cells: CHO cells
T2 sequence (O43614 1-444): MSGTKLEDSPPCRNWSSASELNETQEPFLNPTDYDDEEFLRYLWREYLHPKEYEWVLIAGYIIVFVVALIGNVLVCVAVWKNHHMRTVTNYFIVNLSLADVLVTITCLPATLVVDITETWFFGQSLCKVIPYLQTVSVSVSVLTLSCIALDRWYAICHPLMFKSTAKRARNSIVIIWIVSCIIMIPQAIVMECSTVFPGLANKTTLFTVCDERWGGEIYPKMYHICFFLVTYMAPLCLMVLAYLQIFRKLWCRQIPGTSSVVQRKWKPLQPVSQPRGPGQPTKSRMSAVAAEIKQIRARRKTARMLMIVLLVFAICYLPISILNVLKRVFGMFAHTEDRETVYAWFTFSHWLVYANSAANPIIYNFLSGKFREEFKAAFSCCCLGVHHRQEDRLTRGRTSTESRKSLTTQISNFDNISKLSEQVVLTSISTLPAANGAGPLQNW
In short: as §1

Row | SMILES | inhibition at 10 µM (human OX1 receptor) [%] | inhibition at 10 µM (human OX2 receptor) [%]
1 | Cc1ncc(Cl)c(N2CCN(C(=O)c3cc(Cl)ccc3-n3nccn3)[C@H](C)CO2)n1 [Example 215, ((6R)-2-(5-chloro-2-methylpyrimidin-4-yl)-6-methyl-1,2,5-oxadiazepan-5-yl)(5-chloro-2-(2H-1,2,3-triazol-2-yl)phenyl)methanone] | 40 | 102
2 | Cc1cc(N2CCN(C(=O)c3c(C)cccc3-c3ncccn3)CCO2)nc(C)n1 [Example 216, (2-(2,6-dimethylpyrimidin-4-yl)-1,2,5-oxadiazepan-5-yl)(2-methyl-6-(pyrimidin-2-yl)phenyl)methanone] | 59 | 101
3 | Cc1ccc(C(=O)N2CCN(c3cc(C)nc(C)n3)O[C@@H](C)C2)c(-c2ncccn2)c1 [Example 217, ((7S)-2-(2,6-dimethylpyrimidin-4-yl)-7-methyl-1,2,5-oxadiazepan-5-yl)(4-methyl-2-(pyrimidin-2-yl)phenyl)methanone] | 50 | 101
4 | Cc1cc(N2CCN(C(=O)c3ccc(F)cc3-c3ncccn3)C[C@H](C)O2)nc(C)n1 [Example 218, ((7S)-2-(2,6-dimethylpyrimidin-4-yl)-7-methyl-1,2,5-oxadiazepan-5-yl)(4-fluoro-2-(pyrimidin-2-yl)phenyl)methanone] | 91 | 101
5 | Cc1nccc(N2CCN(C(=O)c3cc(Cl)ccc3-c3ncccn3)C[C@H](C)O2)n1 [Example 219, (5-chloro-2-(pyrimidin-2-yl)phenyl)((7S)-7-methyl-2-(2-methylpyrimidin-4-yl)-1,2,5-oxadiazepan-5-yl)methanone] | 72 | 100
6 | Cc1cc(N2CCN(C(=O)c3cccc(F)c3-c3ncccn3)C[C@H](C)O2)nc(C)n1 [Example 220, ((7S)-2-(2,6-dimethylpyrimidin-4-yl)-7-methyl-1,2,5-oxadiazepan-5-yl)(3-fluoro-2-(pyrimidin-2-yl)phenyl)methanone] | 15 | 101
7 | Cc1cc(N2CCN(C(=O)c3cc(Cl)ccc3-c3ncc(F)cn3)[C@H](C)CO2)nc(C)n1 [Example 221, (5-chloro-2-(5-fluoropyrimidin-2-yl)phenyl)((6R)-2-(2,6-dimethylpyrimidin-4-yl)-6-methyl-1,2,5-oxadiazepan-5-yl)methanone] | 51 | 102
8 | Cc1cc(N2CCN(C(=O)c3ccccc3-c3ncc(F)cn3)CCO2)nc(C)n1 [Example 222, (2-(2,6-dimethylpyrimidin-4-yl)-1,2,5-oxadiazepan-5-yl)(2-(5-fluoropyrimidin-2-yl)phenyl)methanone] | 32 | 99
9 | Cc1cc(N2CCN(C(=O)c3cc(F)c(F)cc3-c3ncc(F)cn3)CCO2)nc(C)n1 [Example 223, (4,5-difluoro-2-(5-fluoropyrimidin-2-yl)phenyl)(2-(2,6-dimethylpyrimidin-4-yl)-1,2,5-oxadiazepan-5-yl)methanone] | 17 | 101
10 | Cc1cc(N2CCN(C(=O)c3cc(Cl)ccc3-c3ncc(F)cn3)CCO2)nc(C)n1 [Example 224, (5-chloro-2-(5-fluoropyrimidin-2-yl)phenyl)(2-(2,6-dimethylpyrimidin-4-yl)-1,2,5-oxadiazepan-5-yl)methanone] | 53 | 100
11 | Cc1nc(N2CCN(C(=O)c3cc(Cl)ccc3-c3ncccn3)CCO2)cc(C(F)(F)F)n1 [Example 225, (5-chloro-2-(pyrimidin-2-yl)phenyl)(2-(2-methyl-6-(trifluoromethyl)pyrimidin-4-yl)-1,2,5-oxadiazepan-5-yl)methanone] | 74 | 103
12 | Cc1cc(N2CCN(C(=O)c3cc(Cl)ccc3-c3ncccn3)CCO2)nc(C)n1 [Example 226, (5-chloro-2-(pyrimidin-2-yl)phenyl)(2-(2,6-dimethylpyrimidin-4-yl)-1,2,5-oxadiazepan-5-yl)methanone] | 80 | 101
13 | Cc1nc(N2CCN(C(=O)c3cc(F)c(F)cc3-c3ncccn3)C[C@H](C)O2)cc(C(F)(F)F)n1 [Example 227, (4,5-difluoro-2-(pyrimidin-2-yl)phenyl)((7S)-7-methyl-2-(2-methyl-6-(trifluoromethyl)pyrimidin-4-yl)-1,2,5-oxadiazepan-5-yl)methanone] | 78 | 97
14 | Cc1cc(N2CCN(C(=O)c3cc(F)c(F)cc3-c3ncccn3)CCO2)nc(C)n1 [Example 228, (4,5-difluoro-2-(pyrimidin-2-yl)phenyl)(2-(2,6-dimethylpyrimidin-4-yl)-1,2,5-oxadiazepan-5-yl)methanone] | 36 | 99
15 | Cc1nccc(N2CCN(C(=O)c3cc(Cl)ccc3-c3ncccn3)[C@H](C)CO2)n1 [Example 229, (5-chloro-2-(pyrimidin-2-yl)phenyl)((6R)-6-methyl-2-(2-methylpyrimidin-4-yl)-1,2,5-oxadiazepan-5-yl)methanone] | 40 | 101
16 | Cc1ncc(Cl)c(N2CCN(C(=O)c3cc(Cl)ccc3-c3ncccn3)[C@H](C)CO2)n1 [Example 230, ((6R)-2-(5-chloro-2-methylpyrimidin-4-yl)-6-methyl-1,2,5-oxadiazepan-5-yl)(5-chloro-2-(pyrimidin-2-yl)phenyl)methanone] | 66 | 103
17 | Cc1cc(N2CCN(C(=O)c3cc(F)c(F)cc3-c3ncccn3)[C@H](C)CO2)nc(C)n1 [Example 231, (4,5-difluoro-2-(pyrimidin-2-yl)phenyl)((6R)-2-(2,6-dimethylpyrimidin-4-yl)-6-methyl-1,2,5-oxadiazepan-5-yl)methanone] | 38 | 103
18 | Cc1cc(N2CCN(C(=O)c3ccccc3-c3noc(C)n3)C[C@H](C)O2)nc(C)n1 [Example 232, ((7S)-2-(2,6-dimethylpyrimidin-4-yl)-7-methyl-1,2,5-oxadiazepan-5-yl)(2-(5-methyl-1,2,4-oxadiazol-3-yl)phenyl)methanone] | 55 | 102
19 | COC(=O)c1ccccc1C(=O)N1CCN(c2cc(C)nc(C)n2)O[C@@H](C)C1 [Example 233, methyl 2-(((7S)-2-(2,6-dimethylpyrimidin-4-yl)-7-methyl-1,2,5-oxadiazepan-5-yl)carbonyl)benzoate] | 17 | 87

From patent publication US10131653B2, “Heterocyclic compound” (TAKEDA PHARMACEUTICAL COMPANY LIMITED, priority 2015, dated 2018)
